Reference: paper PMC2843403 (Bioorganic & medicinal chemistry, 2010)

Assays:
[1] = target: T1, PKCδ C1B (Mus musculus, UniProt P28867); experiment: Fluorescence quenching binding to PKCδ C1B; conditions: fit of fluorescence quenching of PKCδ C1B (2 μM), Fig. 3
Target sequence in this assay (P28867 231-280): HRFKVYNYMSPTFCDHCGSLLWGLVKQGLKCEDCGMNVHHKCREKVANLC

[2] = target: T1, PKCδ C1B; experiment: Emission maximum of ligand in presence of PKCδ C1B; format: binding; conditions: buffer versus presence of C1B subdomain (590 to 560 nm)
Target sequence in this assay (P28867 231-280 limits assumed): as the sequence (P28867 231-280) above

[3] = Solubility; format: physicochemical

| Hill coefficient [1] | Blue shift of emission maximum [2] | Solubility in water [3] | SMILES |
| --- | --- | --- | --- |
| 2 | 30 nm | – | CCCCCCCCCCCCCCCCOc1ccc(/C=C/C(O)=C/C(=O)/C=C/c2ccc(O)c(OC)c2)cc1OC [Compound 4, (1E, 4Z, 6E)-7-(4-(hexadecyloxy)-3-methoxyphenyl)-5-hydroxy-1-(4-hydroxy-3-methoxyphenyl)hepta-1,4,6-trien-3-one] |
| 1.6 | – | poorly soluble | COc1cc(/C=C/C(=O)CC(=O)/C=C/c2ccc(O)c(OC)c2)ccc1O [Compound 1, Curcumin] |

| SMILES | Hill coefficient [1] | Blue shift of emission maximum [2] | Solubility in water [3] |
| --- | --- | --- | --- |
| CCCCCCCCCCCCCC(=O)O[C@@H]1[C@@H](C)[C@@]2(O)[C@@H](C=C(CO)C[C@]3(O)C(=O)C(C)=C[C@@H]23)[C@@H]2C(C)(C)[C@]12OC(C)=O [TPA, 12-O-tetradecanoylphorbol-13-acetate, reference compound] | 1.8 | – | – |
